Laboratory results published in US12427179B2, “Compositions and methods for diagnosis and treatment of neurodegenerative diseases” (EPITRACKER, INC., priority 2019, dated 2025).

Columns and labels:
[1] = system: 3C system (Th1 vascular biology); test: BioMAP 3C system; type: cell-based, human; conditions: at the compound's active concentration
Text: The Diversity PLUS panel allows test agent characterization in an unbiased way across a broad set of systems modeling various human disease states. These systems are designed to model complex human tissue and disease biology of the vasculature, skin, lung, and inflammatory tissues. […] BioMAP systems are constructed with one or more primary cell types from healthy human donors, with stimuli (such as cytokines or growth factors) added to capture relevant signaling networks that naturally occur in human tissue or pathological conditions. […] Each test agent generates a signature BioMAP profile that is created from the changes in protein biomarker readouts within individual system environments. Biomarker readouts (7-17 per system) are selected for therapeutic and biological relevance, are predictive for disease outcomes or specific drug effects and are validated using agents with known mechanism of action (MoA). Each readout is measured quantitatively by immune-based methods that detect protein (e.g., ELISA) or functional assays that measure proliferation and viability. BioMAP readouts are diverse and include cell surface receptors, cytokines, chemokines, matrix molecules and enzymes. In total, the Diversity PLUS panel contains 148 biomarker readouts that capture biological changes that occur within the physiological context of the particular BioMAP system. […]

[2] = system: LPS: Venular endothelial cells, peripheral blood mononuclear cells (TLR4 ligand); test: BioMAP LPS system; type: cell-based, human; conditions: at the compound's active concentration
Procedure: Anti-inflammatory phenotypic profiling was conducted across 12 human primary cell-based systems as part of DiscoverX's BioMAP Diversity Plus program. These systems are designed to model complex human tissue and disease biology of the vasculature, skin, lung, and inflammatory tissues. Quantitative measurements of biomarker activities across this broad panel were used to assess each biochemical's anti-inflammatory activity at four concentrations ([…] and 2.2, 6.7 and 20 μM). […] Protein-based biomarkers from activated cell systems were measured and compared with controls. Biomarker activities were annotated when 2 or more consecutive concentrations change in the same directions relative to vehicle controls, were outside of the significance envelope and had at least one concentration with an effect size>20% (log 10 ratio)>0.1.
In the first system, human primary peripheral blood mononuclear cells and venular endothelial cells were stimulated with lipopolysaccharide (LPS) and incubated with the test agent, drug control, or vehicle control for 24 hours. In the second system, peripheral blood mononuclear cells and B cells were stimulated with α-IgM and T cell receptor ligands and incubated with the test agent, drug control, or vehicle control for 24 hours. In both systems, a negative, non-stimulated system was also included.
The Diversity PLUS panel allows test agent characterization in an unbiased way across a broad set of systems modeling various human disease states. These systems are designed to model complex human tissue and disease biology of the vasculature, skin, lung, and inflammatory tissues. Quantitative measurements of 148 biomarker activities across this broad panel, along with comparative analysis of biological activities from known bioactive agents, were used to predict and compare the efficacy and function of each selected compound at selected concentrations (6.7 and/or 20 μM).
BioMAP systems are constructed with one or more primary cell types from healthy human donors, with stimuli (such as cytokines or growth factors) added to capture relevant signaling networks that naturally occur in human tissue or pathological conditions. Vascular biology is modeled in both a Th1 (3C system) and a Th2 (4H system) inflammatory environment, as well as in a Th1 inflammatory state specific to arterial smooth muscle cells (CASM3C system). Additional systems recapitulate aspects of the systemic immune response including monocyte-driven Th1 inflammation (LPS system) or T cell stimulation (SAg system), chronic Th1 inflammation driven by macrophage activation (lMphg system) and the T cell-dependent activation of B cells that occurs in germinal centers (BT system). The BE3C system (Th1) and the BF4T system (Th2) represent airway inflammation of the lung, while the MyoF system models myofibroblast-lung tissue remodeling. Lastly, skin biology is addressed in the KF3CT system modeling Th1 cutaneous inflammation and the HDF3CGF system modeling wound healing.
Each test agent generates a signature BioMAP profile that is created from the changes in protein biomarker readouts within individual system environments. Biomarker readouts (7-17 per system) are selected for therapeutic and biological relevance, are predictive for disease outcomes or specific drug effects and are validated using agents with known mechanism of action (MoA). Each readout is measured quantitatively by immune-based methods that detect protein (e.g., ELISA) or functional assays that measure proliferation and viability. BioMAP readouts are diverse and include cell surface receptors, cytokines, chemokines, matrix molecules and enzymes. In total, the Diversity PLUS panel contains 148 biomarker readouts that capture biological changes that occur within the physiological context of the particular BioMAP system. […]

## O=C(O)CNC(=O)c1ccccc1 [hippurate]
[1]
  Tissue factor, log10 reduction vs nontreated controls: −0.10 log10
[2]
  CD40, log10 reduction vs nontreated controls: −0.11 log10
